Results published in patent US8927500B2, “Peptidomimetic macrocycles” (Aileron Therapeutics, Inc., priority 2012, dated 2015).
Like-named read-outs stand apart in the source and are kept apart here. Where a SMILES comes first, the peptide text is derived from it. Bridges are numbered along the chain shown (N, C = ends). [ ]: non-standard residue; d: D form. The star is where a group is joined. Phe(4-COOH) = N[C@@H](Cc1ccc(C(=O)O)cc1)C(=O)O; Phe(3,4-F2) = N[C@@H](Cc1ccc(F)c(F)c1)C(=O)O; Palmitoyl = CCCCCCCCCCCCCCCC(=O)*; R8 = C=CCCCCCC[C@@](C)(N)C(=O)O; Cba = N[C@@H](CC1CCC1)C(=O)O; S5 = C=CCCC[C@](C)(N)C(=O)O; Nle = CCCC[C@H](N)C(=O)O

Legend:
[1] = target: MDM2 (Homo sapiens, UniProt Q00987); test: Competitive fluorescence polarization assay for MDM2; format: binding; settings: competitive FP assay, MDM2; for IC50: read-out: IC50 (MDM2)
MDM2, sequence (Q00987 1-125): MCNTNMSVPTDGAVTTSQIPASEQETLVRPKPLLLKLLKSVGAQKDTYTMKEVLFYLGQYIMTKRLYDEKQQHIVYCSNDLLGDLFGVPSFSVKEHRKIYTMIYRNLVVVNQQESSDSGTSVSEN

[2] = target: T1, MDMX (Homo sapiens, UniProt O15151); test: Competitive fluorescence polarization assay for MDMX; format: binding; settings: competitive FP assay; for IC50: read-out: IC50 (MDMX)
T1 sequence (O15151 1-125): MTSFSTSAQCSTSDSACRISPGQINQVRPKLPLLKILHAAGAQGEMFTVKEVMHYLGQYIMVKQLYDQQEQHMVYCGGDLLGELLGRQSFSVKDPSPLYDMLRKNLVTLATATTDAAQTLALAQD

SMILES	IC50 [1] [nM]	Ki ([1]; read-out: Ki (MDM2)) [nM]	IC50 [2] [nM]	Ki ([2]; read-out: Ki (MDMX)) [nM]	Ki ([1]; Ki (MDM2)) [nM]	Ki ([2]; Ki (MDMX)) [nM]
CC[C@H](C)[C@H](NC(=O)[C@H](C)NC(=O)[C@H](C)NC(=O)[C@]1(C)CCCC=CCCCCCC[C@@](C)(NC(=O)[C@H](Cc2ccc(F)c(F)c2)NC(=O)[C@@H](NC(=O)[C@H](CC(C)C)NC(C)=O)[C@@H](C)O)C(=O)N[C@@H](CCC(=O)O)C(=O)N[C@@H](Cc2ccc(O)cc2)C(=O)N[C@@H](Cc2c[nH]c3ccccc23)C(=O)N[C@@H](C)C(=O)N[C@@H](CCC(N)=O)C(=O)N[C@@H](CC2CCC2)C(=O)N1)C(=O)N[C@H](C)C(N)=O [compound 248] (Ac-LT[Phe(3,4-F2)][R8]EYWAQ[Cba][S5]AAI[dA]-NH2; staple 4-11)	10 to 100	< 10	10 to 100	10 to 100	–	–
CCCC[C@H](NC(=O)[C@H](C)NC(=O)[C@H](C)NC(=O)[C@]1(C)CCCC=CCCCCCC[C@@](C)(NC(=O)[C@H](Cc2ccccc2)NC(=O)[C@@H](NC(=O)[C@H](CC(C)C)NC(C)=O)[C@@H](C)O)C(=O)N[C@@H](C)C(=O)N[C@@H](Cc2ccc(O)cc2)C(=O)N[C@@H](Cc2c[nH]c3ccccc23)C(=O)N[C@@H](C)C(=O)N[C@@H](CCC(N)=O)C(=O)N[C@@H](CC(C)C)C(=O)N1)C(=O)N(C)CC(N)=O (single isomer, unassigned) [compound 402]	< 10	< 10	< 10	< 10	–	–
CC(=O)N[C@@H](CC(C)C)C(=O)N[C@H](C(=O)N[C@@H](Cc1ccccc1)C(=O)N[C@]1(C)CCCCCCC=CCCC[C@@](C)(C(=O)N[C@@H](CO)C(=O)N[C@H](C(=O)NCC(N)=O)C(C)C)NC(=O)[C@H](CC(C)C)NC(=O)[C@H](CCC(N)=O)NC(=O)[C@H](C)NC(=O)[C@H](Cc2c[nH]c3ccccc23)NC(=O)[C@H](Cc2ccc(O)cc2)NC(=O)[C@H](C(C)C)NC1=O)[C@@H](C)O (single isomer, unassigned) [compound 146]	< 10	< 10	100 to 1000	10 to 100	–	–
CCCC[C@H](NC(=O)[C@H](C)NC(=O)[C@H](C)NC(=O)[C@]1(C)CCCC=CCCCCCC[C@@](C)(NC(=O)[C@H](Cc2ccccc2)NC(=O)[C@@H](NC(=O)[C@H](C)NC(=O)[C@H](C)NC(C)=O)[C@@H](C)O)C(=O)N[C@@H](CCC(=O)O)C(=O)N[C@@H](Cc2ccc(O)cc2)C(=O)N[C@@H](Cc2c[nH]c3ccccc23)C(=O)N[C@@H](C)C(=O)N[C@@H](CCC(N)=O)C(=O)N[C@@H](CC(C)C)C(=O)N1)C(=O)N[C@@H](C)C(N)=O [compound 374] (Ac-AATF[R8]EYWAQL[S5]AA[Nle]A-NH2; staple 5-12)	10 to 100	< 10	10 to 100	< 10	–	–
CC(=O)N[C@@H](C)C(=O)N[C@@H](C)C(=O)N[C@@H](C)C(=O)N[C@@H](CC(C)C)C(=O)N[C@H](C(=O)N[C@@H](Cc1ccccc1)C(=O)N[C@]1(C)CCCCCC/C=C/CCC[C@@](C)(C(=O)N[C@@H](C)C(=O)N[C@@H](C)C(=O)N[C@@H](C)C(=O)N[C@@H](C)C(=O)N[C@@H](C)C(=O)N[C@H](C)C(N)=O)NC(=O)[C@H](CC(C)C)NC(=O)[C@H](CCC(N)=O)NC(=O)[C@H](C)NC(=O)[C@H](Cc2c[nH]c3ccccc23)NC(=O)[C@H](Cc2ccc(O)cc2)NC(=O)[C@H](CCC(=O)O)NC1=O)[C@@H](C)O [compound 557] (Ac-AAALTF[R8]EYWAQL[S5]AAAAA[dA]-NH2; staple (E) 7-14)	–	–	–	–	10 to 100	10 to 100
CCCC[C@H](NC(=O)[C@H](C)NC(=O)[C@H](C)NC(=O)[C@]1(C)CCCC=CCCCCCC[C@@](C)(NC(=O)[C@H](Cc2ccccc2)NC(=O)[C@@H](NC(=O)[C@H](CC(C)C)NC(C)=O)[C@@H](C)O)C(=O)N[C@@H](C)C(=O)N[C@@H](Cc2ccc(O)cc2)C(=O)N(C)[C@@H](Cc2c[nH]c3ccccc23)C(=O)N[C@@H](C)C(=O)N[C@@H](CCC(N)=O)C(=O)N[C@@H](CC(C)C)C(=O)N1)C(=O)N[C@@H](C)C(N)=O (single isomer, unassigned) [compound 386]	100 to 1000	100 to 1000	> 1000	> 1000	–	–
CCCCCCCCCCCCCCCC(=O)N[C@@H](CCC(=O)O)C(=O)N[C@H](C(=O)N[C@@H](Cc1ccccc1)C(=O)N[C@]1(C)CCCCCCC=CCCC[C@@](C)(C(=O)N[C@@H](CO)C(=O)N[C@@H](C)C(=O)N[C@@H](C)C(N)=O)NC(=O)[C@H](CC2CCC2)NC(=O)[C@H](CCC(N)=O)NC(=O)[C@H](C)NC(=O)[C@H](Cc2c[nH]c3ccccc23)NC(=O)[C@H](Cc2ccc(O)cc2)NC(=O)[C@H](CCC(=O)O)NC1=O)[C@@H](C)O [compound 250] (Palmitoyl-ETF[R8]EYWAQ[Cba][S5]SAA-NH2; staple 4-11)	100 to 1000	100 to 1000	> 1000	> 1000	–	–
CCCC[C@H](NC(=O)[C@H](C)NC(=O)[C@H](CO)NC(=O)[C@]1(C)CCCC=CCCCCCC[C@@](C)(NC(=O)[C@H](Cc2ccccc2)NC(=O)[C@@H](NC(=O)[C@H](CC(C)C)NC(C)=O)[C@@H](C)O)C(=O)N[C@@H](CCC(=O)O)C(=O)N[C@@H](Cc2ccc(O)cc2)C(=O)N[C@@H](Cc2c[nH]c3ccccc23)C(=O)N[C@@H](Cc2c[nH]c3ccccc23)C(=O)N[C@@H](CCC(N)=O)C(=O)N[C@@H](CC2CCC2)C(=O)N1)C(=O)N[C@@H](C)C(N)=O [compound 246] (Ac-LTF[R8]EYWWQ[Cba][S5]SA[Nle]A-NH2; staple 4-11)	10 to 100	< 10	100 to 1000	10 to 100	–	–
CCCC[C@H](NC(=O)[C@H](Cc1c[nH]c2ccccc12)NC(=O)[C@H](C)NC(=O)[C@]1(C)CCCC=CCCCCCC[C@@](C)(NC(=O)[C@H](Cc2ccccc2)NC(=O)[C@@H](NC(=O)[C@H](CCC(=O)O)NC(C)=O)[C@@H](C)O)C(=O)N[C@@H](C)C(=O)N[C@@H](Cc2ccc(O)cc2)C(=O)N[C@@H](Cc2c[nH]c3ccccc23)C(=O)N[C@@H](C)C(=O)N[C@@H](CCC(N)=O)C(=O)N[C@@H](CC2CCC2)C(=O)N1)C(=O)N[C@H](C)C(N)=O [compound 270] (Ac-ETF[R8]AYWAQ[Cba][S5]AW[Nle][dA]-NH2; staple 4-11)	< 10	< 10	10 to 100	10 to 100	–	–
CCCC[C@H](NC(=O)[C@H](C)NC(=O)[C@H](C)NC(=O)[C@]1(C)CCCC=CCCCCCC[C@@](C)(NC(=O)[C@H](Cc2ccccc2)NC(=O)[C@@H](NC(=O)[C@H](CC(C)C)NC(C)=O)[C@@H](C)O)C(=O)N[C@@H](C)C(=O)N[C@@H](Cc2ccc(C(=O)O)cc2)C(=O)N[C@@H](Cc2c[nH]c3ccccc23)C(=O)N[C@@H](C)C(=O)N[C@@H](CCC(N)=O)C(=O)N[C@@H](CCC(C)C)C(=O)N1)C(=O)N[C@@H](C)C(N)=O (single isomer, unassigned) [compound 310]	10 to 100	< 10	10 to 100	10 to 100	–	–
CC(=O)N[C@@H](CC(C)C)C(=O)N[C@H](C(=O)N[C@@H](Cc1ccccc1)C(=O)N[C@]1(C)CCCCCCC=CCCC[C@@](C)(C(=O)N[C@@H](CO)C(=O)N[C@@H](C)C(N)=O)NC(=O)[C@H](CC2CCC2)NC(=O)[C@H](CCC(N)=O)NC(=O)[C@H](C)NC(=O)[C@H](Cc2c[nH]c3ccccc23)NC(=O)[C@H](Cc2ccc(O)cc2)NC(=O)[C@H](CCC(=O)O)NC1=O)[C@@H](C)O (single isomer, unassigned) [compound 711]	–	10 to 100	–	100 to 1000	–	–
CC(=O)N[C@@H](CC(C)C)C(=O)N[C@H](C(=O)N[C@@H](Cc1ccccc1)C(=O)N[C@]1(C)CCCCCCC=CCCC[C@@](C)(C(=O)N[C@@H](CO)C(=O)N[C@@H](C)C(=O)N[C@@H](Cc2ccccc2)C(N)=O)NC(=O)[C@H](CC2CCC2)NC(=O)[C@H](CCC(N)=O)NC(=O)[C@H](C)NC(=O)[C@H](Cc2c[nH]c3ccccc23)NC(=O)[C@H](Cc2ccc(C(=O)O)cc2)NC(=O)[C@H](C)NC1=O)[C@@H](C)O [compound 260] (Ac-LTF[R8]A[Phe(4-COOH)]WAQ[Cba][S5]SAF-NH2; staple 4-11)	10 to 100	< 10	10 to 100	10 to 100	–	–
CC(=O)N[C@@H](CC(C)C)C(=O)N[C@H](C(=O)N[C@@H](Cc1ccccc1)C(=O)N[C@]1(C)CCCCCCC=CCCC[C@@](C)(C(=O)N[C@@H](CO)C(=O)N[C@@H](C)C(=O)N[C@@H](C)C(N)=O)NC(=O)[C@H](CC2CCC2)NC(=O)[C@H](CCC(N)=O)NC(=O)[C@H](C)NC(=O)[C@H](Cc2c[nH]c3ccccc23)NC(=O)[C@H](Cc2ccc(O)cc2)NC(=O)[C@H](CO)NC1=O)[C@@H](C)O (single isomer, unassigned) [compound 713]	–	< 10	–	< 10	–	–
CC(=O)N[C@@H](CC(C)C)C(=O)N[C@H](C(=O)N[C@@H](Cc1ccccc1)C(=O)N[C@]1(C)CCCCCCC=CCCC[C@@](C)(C(=O)N[C@@H](CCCNC(=N)N)C(=O)N[C@@H](C)C(=O)N[C@@H](C)C(N)=O)NC(=O)[C@H](CC2CCC2)NC(=O)[C@H](CCC(N)=O)NC(=O)[C@H](C)NC(=O)[C@H](Cc2c[nH]c3ccccc23)NC(=O)[C@H](Cc2ccc(O)cc2)NC(=O)[C@H](CCC(=O)O)NC1=O)[C@@H](C)O [compound 364] (Ac-LTF[R8]EYWAQ[Cba][S5]RAA-NH2; staple 4-11)	10 to 100	< 10	10 to 100	< 10	–	–
